Data taken from patent US11427548B2 (Arvinas Operations, Inc., priority 2015, dated 2022).
Read-outs that look alike come from different tables or passages of the source.

Target: T1, Androgen Receptor (Homo sapiens, UniProt P10275)
T1 construct: endogenous in cells; host or cells: VCaP cells
T1 sequence (P10275 1-920): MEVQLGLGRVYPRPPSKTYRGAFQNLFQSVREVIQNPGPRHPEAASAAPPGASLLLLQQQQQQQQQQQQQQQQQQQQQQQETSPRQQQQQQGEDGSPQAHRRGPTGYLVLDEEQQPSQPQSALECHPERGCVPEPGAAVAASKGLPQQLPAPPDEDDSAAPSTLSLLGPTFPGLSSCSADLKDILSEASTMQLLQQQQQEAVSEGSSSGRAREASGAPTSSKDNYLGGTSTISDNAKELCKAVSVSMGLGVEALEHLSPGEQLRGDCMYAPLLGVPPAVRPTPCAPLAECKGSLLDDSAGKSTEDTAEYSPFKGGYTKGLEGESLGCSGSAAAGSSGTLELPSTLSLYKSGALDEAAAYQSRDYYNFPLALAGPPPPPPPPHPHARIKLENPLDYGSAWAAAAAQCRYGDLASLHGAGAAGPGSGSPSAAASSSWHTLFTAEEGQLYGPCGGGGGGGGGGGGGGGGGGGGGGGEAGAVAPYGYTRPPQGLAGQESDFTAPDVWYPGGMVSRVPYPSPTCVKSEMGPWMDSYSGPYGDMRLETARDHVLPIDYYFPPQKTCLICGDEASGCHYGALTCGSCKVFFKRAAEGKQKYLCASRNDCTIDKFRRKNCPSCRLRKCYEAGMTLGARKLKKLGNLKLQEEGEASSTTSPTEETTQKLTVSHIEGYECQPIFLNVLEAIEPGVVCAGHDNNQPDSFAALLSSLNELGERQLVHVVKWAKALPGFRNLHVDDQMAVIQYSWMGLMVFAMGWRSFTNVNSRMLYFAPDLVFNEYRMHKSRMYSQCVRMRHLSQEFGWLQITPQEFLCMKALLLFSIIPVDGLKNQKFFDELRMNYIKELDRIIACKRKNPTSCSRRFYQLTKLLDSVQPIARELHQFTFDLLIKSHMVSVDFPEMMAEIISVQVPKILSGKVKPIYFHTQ
Experiment: Androgen Receptor ELISA assay (PathScan AR ELISA) in VCaP cells: AR degradation, Dmax and DC50
Type: cell-based
How it was run: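 VCaP cells in phenol red-free RPMI with 5% charcoal-stripped FBS were grown at least 3 days, then given compound as 7 half-log doses in 0.1% DMSO with 0.1 nM R1881 for 24 h. Lysates went into a sandwich AR ELISA with TMB read at 450 nm.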

[1] = read-out: VCaP DC50; VCaP cells; Table 36
[2] = VCaP cells; Table 36; read-out: VCaP DC50
[3] = VCaP, VCaP cells; Table 36; read-out: VCaP Dmax (%)

## Cc1ncsc1-c1ccc([C@H](C)NC(=O)C2C[C@@H](O)CN2C(=O)[C@@H](NC(=O)c2cc3ccc(OC[C@H]4C[C@H](COc5ccc(N6C(=S)N(c7ccc(C#N)c(C(F)(F)F)c7)C(=O)C6(C)C)cc5)C4)cc3o2)C(C)(C)C)cc1 (stereo partly shown) [Example 605, 1-(2-(6-((3-((4-(3-(4-cyano-3-(trifluoromethyl)phenyl)-5,5-dimethyl-4-oxo-2-thioxoimidazolidin-1-yl)phenoxy)methyl)cyclo-butyl)methoxy)benzo-furan-2-carboxamido)-3,3-dimethylbutanoyl)-4-hydroxy-N-(1-(4-(4-methylthiazol-5-yl)phenyl)ethyl)pyrroli-dine-2-carboxamide]
VCaP, read-out: VCaP Dmax (%)
  Dmax: < 25%
[1]
  DC50: > 501 nM

## Cc1nccn1-c1ccc([C@H](C)NC(=O)C2C[C@@H](O)CN2C(=O)C(NC(=O)COCC2CCN(c3ccc(C(=O)N[C@H]4C(C)(C)[C@H](Oc5ccc(C#N)c(Cl)c5)C4(C)C)cn3)CC2)C(C)(C)C)cc1 (stereo partly drawn) [Example 606, N-((1r,3r)-3-(3-chloro-4-cyanophenoxy)-2,2,4,4-tetramethylcyclobutyl)-6-(4-((2-(((S)-1-((2S,4R)-4-hydroxy-2-(((S)-1-(4-(2-methyl-1H-imidazol-1-yl)phenyl)ethyl)carbam-oyl)pyrrolidin-1-yl)-3,3-dimethyl-1-oxobutan-2-yl)amino)-2-oxoethoxy)methyl)piper-idin-1-yl)nicotinamide]
[2]
  DC50: < 50 nM
[3]
  Dmax: 51 to 70%

## Cc1ncsc1-c1ccc([C@H](C)NC(=O)[C@@H]2C[C@@H](O)CN2C(=O)[C@@H](NC(=O)COCCCCCNc2ccc(C(=O)N[C@H]3C(C)(C)[C@H](Oc4ccc(C#N)c(Cl)c4)C3(C)C)nn2)C(C)(C)C)cc1 [Example 607, N-((1r,3r)-3-(3-chloro-4-cyanophenoxy)-2,2,4,4-tetramethylcyclobutyl)-6-((5-(2-(((S)-1-((2S,4R)-4-hydroxy-2-(((S)-1-(4-(4-methylthiazol-5-yl)phenyl)ethyl)carbam-oyl)pyrrolidin-1-yl)-3,3-dimethyl-1-oxobutan-2-yl)amino)-2-oxoethoxy)pentyl)amino) pyridazine-3-carboxamide]
[2]
  DC50: > 501 nM
VCaP, read-out: VCaP Dmax (%), VCaP cells; Table 36
  Dmax: 26 to 50%

## Cc1ncsc1-c1ccc([C@H](C)NC(=O)[C@@H]2C[C@@H](O)CN2C(=O)[C@H](C(C)C)n2cc(-c3ccnc(N4CC[C@H](Oc5ccc(N6C(=S)N(c7ccc(C#N)c(C(F)(F)F)c7)C(=O)C6(C)C)cc5)C4)c3)cn2)cc1 [Example 609]
VCaP, read-out: VCaP Dmax (%)
  Dmax: < 25%
[1]
  DC50: > 501 nM

## Cc1ncsc1-c1ccc([C@H](C)NC(=O)[C@@H]2C[C@@H](O)CN2C(=O)[C@@H](C(C)C)n2cc(-c3ccnc(N4CC[C@H](Oc5ccc(N6C(=S)N(c7ccc(C#N)c(C(F)(F)F)c7)C(=O)C6(C)C)cc5)C4)c3)cn2)cc1 [Example 610, (2S,4R)-1-((R)-2-(4-(2-((S)-3-(4-(3-(4-cyano-3-(trifluoromethyl)phenyl)-5,5-dimethyl-4-oxo-2-thioxoimidazolidin-1-yl)phenoxy)pyrrolidin-1-yl)pyridin-4-yl)-1H-pyrazol-1-yl)-3-methylbutanoyl)-4-hydroxy-N-((S)-1-(4-(4-methylthiazol-5-yl)phenyl)ethyl)pyrroli-dine-2-carboxamide]
VCaP, read-out: VCaP Dmax (%)
  Dmax: < 25%
[1]
  DC50: > 501 nM

## Cc1nccn1-c1ccc([C@H](C)NC(=O)[C@@H]2C[C@@H](O)CN2C(=O)[C@H](C(C)C)n2cc(OCCCOCCCCCOc3ccc(N4C(=S)N(c5ccc(C#N)c(C(F)(F)F)c5)C(=O)C4(C)C)cc3)cn2)cc1 [Example 611, (2S,4R)-1-((S)-2-(4-(3-((5-(4-(3-(4-cyano-3-(trifluoromethyl)phenyl)-5,5-dimethyl-4-oxo-2-thioxoimidazolidin-1-yl)phenoxy)pentyl)oxy)propoxy)-1H-pyrazol-1-yl)-3-methylbutanoyl)-4-hydroxy-N-((S)-1-(4-(2-methyl-1H-imidazol-1-yl)phenyl)ethyl)pyrrolidine-2-carboxamide]
VCaP, read-out: VCaP Dmax (%)
  Dmax: < 25%
[1]
  DC50: > 501 nM

## Cc1ncsc1-c1ccc([C@H](C)NC(=O)[C@@H]2C[C@@H](O)CN2C(=O)C(NC(=O)COCCCOCC[C@@H](O)CCOc2ccc(N3C(=S)N(c4ccc(C#N)c(C(F)(F)F)c4)C(=O)C3(C)C)cc2)C(C)(C)C)cc1 (stereo partly shown) [Example 613, 1-(2-(2-(3-((5-(4-(3-(4-cyano-3-(trifluoromethyl)phenyl)-5,5-dimethyl-4-oxo-2-thioxoimidazolidin-1-yl)phenoxy)-3-hydroxypentyl)oxy)pro-poxy)acetamido)-3,3-dimethylbutanoyl)-4-hydroxy-N-(1-(4-(4-methylthiazol-5-yl)phenyl)ethyl)pyrrolidine-2-carboxamide]
VCaP, read-out: VCaP Dmax (%)
  Dmax: 26 to 50%
[1]
  DC50: > 501 nM

## Cc1ncsc1-c1ccc([C@H](C)NC(=O)[C@@H]2C[C@@H](O)CN2C(=O)[C@@H](NC(=O)CN2CCO[C@H](COCCCCCOc3ccc(N4C(=S)N(c5ccc(C#N)c(C(F)(F)F)c5)C(=O)C4(C)C)cc3)C2)C(C)(C)C)cc1 [Example 614, (2S,4R)-1-((S)-2-(2-((S)-2-(((5-(4-(3-(4-cyano-3-(trifluoromethyl)phenyl)-5,5-dimethyl-4-oxo-2-thioxoimidazolidin-1-yl)phenoxy)pentyl)oxy)methyl)morpholino)ace-tamido)-3,3-dimethylbutanoyl)-4-hydroxy-N-((S)-1-(4-(4-methylthiazol-5-yl)phenyl)ethyl)pyrrolidine-2-carboxamide]
VCaP, read-out: VCaP Dmax (%)
  Dmax: 26 to 50%
[1]
  DC50: > 501 nM

## Cc1ncsc1-c1ccc([C@H](C)NC(=O)[C@@H]2C[C@@H](O)CN2C(=O)[C@@H](NC(=O)CN2CCN(CCOc3ccc(C(=O)N[C@H]4C(C)(C)[C@H](Oc5ccc(C#N)c(Cl)c5)C4(C)C)cc3)CC2)C(C)(C)C)cc1 [Example 615, (2S,4R)-1-((S)-2-(2-(4-(2-(4-(((1r,3r)-3-(3-chloro-4-cyanophenoxy)-2,2,4,4-tetramethylcyclobutyl)carbamoyl)phenoxy)eth-yl)piperazin-1-yl)acetamido)-3,3-dimethylbutanoyl)-4-hydroxy-N-((S)-1-(4-(4-methylthiazol-5-yl)phenyl)ethyl)pyrrolidine-2-carboxamide]
[2]
  DC50: < 50 nM
[3]
  Dmax: > 71%

## Cc1ncsc1-c1ccc([C@H](C)NC(=O)[C@@H]2C[C@@H](O)CN2C(=O)C(C(C)C)n2cnc(-c3ccnc(N4CC[C@H](Oc5ccc(N6C(=S)N(c7ccc(C#N)c(C(F)(F)F)c7)C(=O)C6(C)C)cc5)C4)c3)c2)cc1 (stereo partly shown) [Example 617, 1-(2-(4-(2-(3-(4-(3-(4-cyano-3-(trifluoromethyl)phenyl)-5,5-dimethyl-4-oxo-2-thioxoimidazolidin-1-yl)phenoxy)pyrrolidin-1-yl)pyridin-4-yl)-1H-imidazol-1-yl)-3-methylbutanoyl)-4-hydroxy-N-(1-(4-(4-methylthiazol-5-yl)phenyl)ethyl)pyrrolidine-2-carboxamide]
VCaP, read-out: VCaP Dmax (%)
  Dmax: < 25%
[1]
  DC50: > 501 nM

## Cc1ncsc1-c1ccc([C@H](C)NC(=O)[C@@H]2C[C@@H](O)CN2C(=O)[C@@H](NC(=O)COCCCOCCCCCNc2ccc(N3C(=S)N(c4ccc(C#N)c(C(F)(F)F)c4)C(=O)C3(C)C)cn2)C(C)(C)C)cc1 [Example 618, (2S,4R)-1-((S)-2-(2-(3-((5-((5-(3-(4-cyano-3-(trifluoromethyl)phenyl)-5,5-dimethyl-4-oxo-2-thioxoimidazolidin-1-yl)pyridin-2-yl)amino)pentyl)oxy)pro-poxy)acetamido)-3,3-dimethylbutanoyl)-4-hydroxy-N-((S)-1-(4-(4-methylthiazol-5-yl)phenyl)ethyl)pyrrolidine-2-carboxamide]
VCaP, read-out: VCaP Dmax (%)
  Dmax: 51 to 70%
[1]
  DC50: < 50 nM
